These results are taken from patent US20050009840A1 (SUGEN, INC., priority 2003, published 2005).

Where two headings read alike, the source gives them in different places.

The target of this assay is T1, HGFR (Homo sapiens, UniProt P08581).
T1 construct: purchased Upstate 14-526
Briefly: HGFR continuous-coupled spectrophotometric assay. It is filed as biochemical. The settings on record: for inhibition at 0.05 µM: at 50 nM, Table 5, library procedure 40, read-out: % inhibition (percent c-MET inhibition); for inhibition at 1 pM / inhibition at 1 µM: read-out: % Inhibition (percent c-MET inhibition); for inhibition at 1 µM: Table 8, library procedure 43.

The mark [1] stands for this setting: Table 3, column 'Ki (μM) or I (%)': cells without % sign, read-out: Ki.
Setting [2] is: cells prefixed Ki, read-out: Met Ki.

T1 sequence (P08581 974-1390 limits assumed): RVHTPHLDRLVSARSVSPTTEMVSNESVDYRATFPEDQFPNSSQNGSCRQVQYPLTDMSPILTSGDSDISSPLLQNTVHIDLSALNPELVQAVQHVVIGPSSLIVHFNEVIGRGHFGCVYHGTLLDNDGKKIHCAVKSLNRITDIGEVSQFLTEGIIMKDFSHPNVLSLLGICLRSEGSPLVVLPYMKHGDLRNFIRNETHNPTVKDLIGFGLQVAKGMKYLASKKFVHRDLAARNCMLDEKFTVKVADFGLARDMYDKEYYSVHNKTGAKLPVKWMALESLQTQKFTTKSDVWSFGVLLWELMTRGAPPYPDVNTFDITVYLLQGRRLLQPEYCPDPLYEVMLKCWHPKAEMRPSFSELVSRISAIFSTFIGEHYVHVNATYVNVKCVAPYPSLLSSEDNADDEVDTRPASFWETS

On to `CC(Oc1cc(-c2ccc(C(=O)N3CCC(CO)C3)cc2)cnc1N)c1c(Cl)ccc(F)c1Cl` [Example L-172], for which the inhibition at 0.05 µM came out at 79%.
Take `Nc1ncc(C(=O)N2CCN(CC(=O)Nc3ccccn3)CC2)cc1OCc1c(Cl)cccc1Cl` [Example L-280]: where the note is “Table 6, library procedure 41”, the inhibition at 1 pM was 56%.
Turning to `CCN(CC)c1ccc(NC(=O)c2ccc(COc3cc(-c4ccc(C(=O)N5CCC(N6CCCC6)CC5)cc4)cnc3N)cc2)cc1`, where the note is “Table 7, library procedure 42”, the inhibition at 1 pM came out at 47%.
With `CC(Oc1cc(-c2ccc(C(=O)NC(CO)c3cccnc3)cc2)cnc1N)c1c(Cl)ccc(F)c1Cl` [Example L-164], the inhibition at 0.05 µM is 61%.
As to `Nc1ncc(-c2ccc(C(=O)N3CCC(N4CCCC4)CC3)cc2)cc1OCc1cc(-c2ccccc2)no1`, the inhibition at 1 pM (Table 7, library procedure 42) worked out at 23%.
Same read-out and setting: in the case of `CCOC(=O)CCNS(=O)(=O)c1ccc(COc2cc(-c3ccc(C(=O)N4CCC(N5CCCC5)CC4)cc3)cnc2N)cc1` it was 15%.
The same measure, in the same setting: in the case of `Nc1ncc(-c2ccc(C(=O)N3CCC(N4CCCC4)CC3)cc2)cc1OCc1cncc2ccccc12` it was 9%; in that of `Cc1oc(-c2ccc(F)cc2)nc1COc1cc(-c2ccc(C(=O)N3CCC(N4CCCC4)CC3)cc2)cnc1N`, 17%; in that of `COc1ccnc(COc2cc(-c3ccc(C(=O)N4CCC(N5CCCC5)CC4)cc3)cnc2N)c1OC`, 23%.
With `Nc1ncc(C(=O)N2CCNC(=O)C2)cc1OCc1c(Cl)cccc1Cl` [Example L-307], the inhibition at 1 pM (Table 6, library procedure 41) came out at 22%.
As for `CC1CN(C(=O)c2ccc(-c3cnc(N)c(OCc4ccc(F)c(F)c4F)c3)cc2)CC(C)N1` (stereo not drawn), the inhibition at 1 µM was 25%.
Turning to `Cc1noc([C@H]2CC[C@H](CNC(=O)c3ccc(-c4cnc(N)c(O[C@@H](C)c5c(Cl)ccc(F)c5Cl)c4)cc3)CC2)n1` [Example L-176], the inhibition at 0.05 µM turned out to be 51%.
The same measure, in the same setting: with `CC(Oc1cc(-c2ccc(C(=O)N3CCN(CC(=O)N(C)C)CC3)cc2)cnc1N)c1c(Cl)ccc(F)c1Cl` [Example L-146] the figure was 89%.
On to `COc1ncccc1-c1cnc(N)c(OC(C)c2c(Cl)ccc(F)c2Cl)c1` (stereo not drawn) [Example I-646, 5-[1-(2,6-Dichloro-3-fluoro-phenyl)-ethoxy]-2′-methoxy-[3,3′]bipyridinyl-6-ylamine], for which the Ki under setting [1] turned out to be 0.099 µM.
Take `Nc1ncc(-c2ccc(C(=O)N3CCC(N4CCCC4)CC3)cc2)cc1OCc1cccc(C(=O)NCCc2ccccn2)c1`: the inhibition at 1 pM (Table 7, library procedure 42) came to 12%.
As to `Nc1ncc(C(=O)NCc2cc3cc[nH]c3cn2)cc1OCc1c(Cl)cccc1Cl` [Example L-275], the inhibition at 1 pM (Table 6, library procedure 41) worked out at 28%.
Consider `CC(Oc1cc(-c2ccc(C(=O)NCCN3[C@H](C)CCC[C@@H]3C)cc2)cnc1N)c1c(Cl)ccc(F)c1Cl` (stereo partly drawn) [Example L-154], for which the inhibition at 0.05 µM came to 77%.
As for `Nc1ncc(-c2ccc(C(=O)N3CCC(N4CCCC4)CC3)cc2)cc1OCc1cn2cccnc2n1`, the inhibition at 1 pM (Table 7, library procedure 42) turned out to be 16%.
As for `CN(C)c1ccc(CNC(=O)c2cnc(N)c(OCc3c(Cl)cccc3Cl)c2)cc1` [Example L-186], under “Table 6, library procedure 41”, the inhibition at 1 pM came to 30%.
`Nc1ncc(-c2ccc(C(=O)N3CCC(N4CCCC4)CC3)cc2)cc1OCc1cc(F)ccc1C(F)(F)F`: the inhibition at 1 pM (Table 7, library procedure 42) turned out to be 26%.
For `CC1CN(C(=O)c2ccc(-c3cnc(N)c(OCc4cccc(C(=O)NC5CCN(Cc6ccccc6)C5)c4)c3)cc2)CC(C)N1` (stereo not drawn), the inhibition at 1 µM is 18%.
As to `Cc1nc2ccc(COc3cc(-c4ccc(C(=O)N5CCC(N6CCCC6)CC5)cc4)cnc3N)cc2c(=O)[nH]1`, the inhibition at 1 pM (Table 7, library procedure 42) turned out to be 12%.
On to `CC(O)CNC(=O)c1ccc(-c2cnc(N)c(OC(C)c3c(Cl)ccc(F)c3Cl)c2)cc1` [Example L-56], for which the inhibition at 0.05 µM turned out to be 83%.
For `CC(Oc1cc(-c2ccc(OCC(=O)N3C[C@@H](C)N[C@@H](C)C3)cc2)cnc1N)c1c(Cl)ccc(F)c1Cl` (stereo partly drawn) [Example I-477, 2-(4-{6-Amino-5-[1-(2,6-dichloro-3-fluoro-phenyl)-ethoxy]-pyridin-3-yl}-phenoxy)-1-((3R,5S)-3,5-dimethyl-piperazin-1-yl)-ethanone], the inhibition constant (Ki) under setting [2] came to 0.027 µM.
In the case of `CC1CN(C(=O)c2ccc(-c3cnc(N)c(OCc4ccc(C#N)cc4)c3)cc2)CC(C)N1` (stereo not drawn), the inhibition at 1 µM worked out at 13%.
For the molecule `CC1CN(C(=O)c2ccc(-c3cnc(N)c(OCc4ncc(C(F)(F)F)cc4Cl)c3)cc2)CC(C)N1` (stereo not drawn), the inhibition at 1 µM worked out at 17%.
For the molecule `Nc1ncc(-c2ccc(C(=O)N3CCC(N4CCCC4)CC3)cc2)cc1OCc1cc(F)ccc1Br`, where the note is “Table 7, library procedure 42”, the inhibition at 1 pM was 24%.
The same measure, in the same setting: with `COc1cccc(COc2cc(-c3ccc(C(=O)N4CCC(N5CCCC5)CC4)cc3)cnc2N)c1OC` the figure was 23%.
Turning to `Nc1ncc(C(=O)N2CCC3(CC2)COC(CCc2ccnnc2)C3)cc1OCc1c(Cl)cccc1Cl` [Example L-343], under “Table 6, library procedure 41”, the inhibition at 1 pM was 37%.
For `Cc1ccnc2nc(COc3cc(-c4ccc(C(=O)N5CCC(N6CCCC6)CC5)cc4)cnc3N)cn12`, for the setting “Table 7, library procedure 42”, the inhibition at 1 pM was 10%.
The same measure, in the same setting: with `N#Cc1cccc(COc2cc(-c3ccc(C(=O)N4CCC(N5CCCC5)CC4)cc3)cnc2N)c1` the figure was 12%.
For `CC1CN(C(=O)c2ccc(-c3cnc(N)c(OCc4ccc(Br)cc4F)c3)cc2)CC(C)N1` (stereo not drawn), the inhibition at 1 µM was 29%.
For `CC(C)(CO)CNC(=O)c1cnc(N)c(OCc2c(Cl)cccc2Cl)c1` [Example L-210], where the note is “Table 6, library procedure 41”, the inhibition at 1 pM worked out at 39%.
`CC(Oc1cc(C#CC(=O)NC2CCCCC2)cnc1N)c1c(Cl)ccc(F)c1Cl` (stereo not drawn) [Example I-439, 3-{6-Amino-5-[1-(2,6-dichloro-3-fluoro-phenyl)-ethoxy]-pyridin-3-yl}-propynoic acid cyclohexylamide]: the Ki under setting [2] is 0.46 µM.
In the case of `CC(Oc1cc(-c2ccc(C(=O)N(C)CCc3ccncc3)cc2)cnc1N)c1c(Cl)ccc(F)c1Cl` [Example L-76], the inhibition at 0.05 µM was determined as 73%.
As for `Nc1ncc(-c2ccc(C(=O)N3CCC(N4CCCC4)CC3)cc2)cc1OCc1ccc(C(=O)NCCCN2CCCC2=O)cc1`, the inhibition at 1 pM (Table 7, library procedure 42) was 11%.
`CC(Oc1cc(-c2ccc(C(=O)N3CCN(CC(=O)N4CCCC4)CC3)cc2)cnc1N)c1c(Cl)ccc(F)c1Cl` [Example L-46]: the inhibition at 0.05 µM turned out to be 78%.
For the molecule `Nc1ncc(C(=O)N2CCC(COc3cccc4cccnc34)C2)cc1OCc1c(Cl)cccc1Cl` [Example L-348], the inhibition at 1 pM (Table 6, library procedure 41) turned out to be 35%.
On the same count and under the same terms, in the case of `Cc1ccc(F)c(CNC(=O)c2cnc(N)c(OCc3c(Cl)cccc3Cl)c2)c1F` [Example L-278] it was 31%.
`CCc1nc(COc2cc(-c3ccc(C(=O)N4CCC(N5CCCC5)CC4)cc3)cnc2N)no1`: under “Table 7, library procedure 42”, the inhibition at 1 pM amounted to 5%.
The same measure, in the same setting: with `Cc1cc(-c2onc(C)c2COc2cc(-c3ccc(C(=O)N4CCC(N5CCCC5)CC4)cc3)cnc2N)no1` the figure was 22%; with `Nc1ncc(-c2ccc(C(=O)N3CCC(N4CCCC4)CC3)cc2)cc1OCc1ccc(OC(F)(F)F)cc1`, 20%.
In the case of `CCOC(=O)CN1CCN(C(=O)c2ccc(-c3cnc(N)c(OC(C)c4c(Cl)ccc(F)c4Cl)c3)cc2)CC1` [Example L-68], the inhibition at 0.05 µM came out at 70%.
Same read-out and setting: in the case of `C[C@H](Oc1cc(-c2ccc(C(=O)N[C@H](CO)c3ccccc3)cc2)cnc1N)c1c(Cl)ccc(F)c1Cl` [Example L-20] it was 69%.
As for `CC(C)(O)c1ccc(CNC(=O)c2cnc(N)c(OCc3c(Cl)cccc3Cl)c2)cc1` [Example L-289], the inhibition at 1 pM (Table 6, library procedure 41) was 24%.
On the same count and under the same terms, with `Nc1ncc(C(=O)NCC(F)(F)F)cc1OCc1c(Cl)cccc1Cl` [Example L-224] the figure was 30%.
As to `CC(Oc1cc(-c2ccc(C(=O)NCCN(C)C3CCCCC3)cc2)cnc1N)c1c(Cl)ccc(F)c1Cl` [Example L-171], the inhibition at 0.05 µM was found to be 69%.
Consider `CC1CN(C(=O)c2ccc(-c3cnc(N)c(OCc4cccc(C(=O)Nc5ccc(N6CCCCC6)cc5)c4)c3)cc2)CC(C)N1` (stereo not drawn), for which the inhibition at 1 µM came out at 28%.
Take `CC(Oc1cc(-c2ccc(C(=O)NC3CCN(Cc4ccccc4)CC3)cc2)cnc1N)c1c(Cl)ccc(F)c1Cl` [Example L-4]: the inhibition at 0.05 µM was 47%.
`CN(CC#N)C(=O)c1cnc(N)c(OCc2c(Cl)cccc2Cl)c1` [Example L-237]: where the note is “Table 6, library procedure 41”, the inhibition at 1 pM turned out to be 30%.
Regarding `CC(Oc1cc(-c2ccc(C(=O)N(C)C3CCCC3)cc2)cnc1N)c1c(Cl)ccc(F)c1Cl` [Example L-130], the inhibition at 0.05 µM was determined as 60%.
With `Cc1cnc(CNC(=O)c2cnc(N)c(OCc3c(Cl)cccc3Cl)c2)cn1` [Example L-215], the inhibition at 1 pM (Table 6, library procedure 41) was 33%.
As for `Cc1onc(-c2ccccc2)c1COc1cc(-c2ccc(C(=O)N3CCC(N4CCCC4)CC3)cc2)cnc1N`, the inhibition at 1 pM (Table 7, library procedure 42) turned out to be 19%.
The same measure, in the same setting: with `Nc1ncc(-c2ccc(C(=O)N3CCC(N4CCCC4)CC3)cc2)cc1OCc1ccc(S(=O)(=O)N2CCOCC2)cc1` the figure was 14%.
Take `CC(C)[C@@H](CO)NC(=O)c1ccc(-c2cnc(N)c(O[C@@H](C)c3c(Cl)ccc(F)c3Cl)c2)cc1` [Example L-82]: the inhibition at 0.05 µM was found to be 74%.
As for `Nc1ncc(C(=O)NCc2c(F)cccc2C(F)(F)F)cc1OCc1c(Cl)cccc1Cl` [Example L-308], the inhibition at 1 pM (Table 6, library procedure 41) amounted to 33%.
Take `Cc1cc(-c2cnc(N)c(OC(C)c3c(Cl)ccc(F)c3Cl)c2)ccc1C(=O)N1C[C@@H](C)N[C@@H](C)C1` (stereo partly drawn) [Example I-570]: the Ki under setting [1] is 0.225 µM.
In the case of `CC1CN(C(=O)c2ccc(-c3cnc(N)c(OCc4ccc(C(=O)N5CCN(Cc6ccccc6)CC5)cc4)c3)cc2)CC(C)N1` (stereo not drawn), the inhibition at 1 µM was 15%.
Consider `CC(Oc1cc(-c2ccc(OCCN3CCCC3)nc2)cnc1N)c1c(Cl)ccc(F)c1Cl` (stereo not drawn) [Example I-638, 5-[1-(2,6-Dichloro-3-fluoro-phenyl)-ethoxy]-6′-(2-pyrrolidin-1-yl-ethoxy)-[3,3′]bipyridinyl-6-ylamine], for which, under setting [1], the Ki is 0.094 µM.
Take `Nc1ncc(C(=O)NC[C@H]2CC[C@H](c3nc4ccccc4[nH]3)CC2)cc1OCc1c(Cl)cccc1Cl` [Example L-264]: the inhibition at 1 pM (Table 6, library procedure 41) was 38%.
